Test results from patent US11897880B2, “7,8-dihydrobenzo[e]pyrido[3,4-c]azocine-2,5(3H,6H)-dione derivatives useful as a factor XIa inhibitors” (Janssen Pharmaceutica NV, priority 2021, dated 2024).
Read-outs that look alike come from different tables or passages of the source.

Assays:
[1] = target: Factor XIa (Homo sapiens, UniProt P03951); assay: Factor XIa inhibition assay utilizing a fluorophore-quencher pair peptide substrate (FLINT); type: biochemical; conditions: for IC50: read-out: FXIa IC50; for Ki: read-out: FXIa Ki
Factor XIa, sequence (P03951 388-625 limits assumed): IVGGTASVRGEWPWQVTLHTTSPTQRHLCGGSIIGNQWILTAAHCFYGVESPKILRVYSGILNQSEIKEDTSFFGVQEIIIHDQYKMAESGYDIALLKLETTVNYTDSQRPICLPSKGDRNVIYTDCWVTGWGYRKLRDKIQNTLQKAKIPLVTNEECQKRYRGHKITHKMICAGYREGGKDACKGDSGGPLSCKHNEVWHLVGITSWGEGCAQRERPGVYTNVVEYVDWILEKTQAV
Factor XIa, sequence (P03951 19-387 partner limits assumed): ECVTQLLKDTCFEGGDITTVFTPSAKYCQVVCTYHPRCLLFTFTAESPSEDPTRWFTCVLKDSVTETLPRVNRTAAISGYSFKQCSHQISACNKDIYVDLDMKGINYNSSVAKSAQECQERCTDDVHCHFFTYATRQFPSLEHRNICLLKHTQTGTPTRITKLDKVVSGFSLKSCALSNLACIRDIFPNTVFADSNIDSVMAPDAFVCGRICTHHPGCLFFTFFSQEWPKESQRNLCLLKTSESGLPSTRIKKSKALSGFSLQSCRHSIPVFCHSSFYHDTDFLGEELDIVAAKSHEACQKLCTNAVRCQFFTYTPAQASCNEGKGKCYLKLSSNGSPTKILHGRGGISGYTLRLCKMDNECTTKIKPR
Text: Biological Example 1: Factor XIa Inhibition Assay Utilizing a Fluorophore-Quencher Pair Peptide Substrate
A fluorescence intensity (FLINT) based assay was used to monitor inhibition of Factor XIa. The peptide substrate, 5Fam-KLTRAETV-K5Tamra (purchased from New England Peptide) was chosen based on the FXI sequence. Conversion of zymogen FXI to its activated form, FXIa, occurs by proteolytic cleavage by […] at two sites, Arg146 and Arg180. The custom peptide used in this assay was based on the Arg146 cleavage site of FXI. The peptide substrate was designed with a fluorophore-quencher pair, where the fluorescence is quenched until FXIa cleaves the 8-mer peptide after the Arg residue.
The Factor XIa FLINT assay was used with the following 5Fam-KLTRAETV-K5Tamra assay buffer: 50 mM Tris, pH 7.5, 100 mM NaCl, 5 mM CaCl2), 0.1 mg/mL BSA, 0.03% CHAPS. Assay buffer was prepared by mixing all ingredients fresh. 5Fam-KLTRAETV-K5Tamra peptide substrate was first prepared at 10 mM in 100% DMSO, then diluted to 3 mM in 100% DMSO. Assay buffer was then added directly to the 3 mM stock of substrate to prepare the 30 μM 2× working concentration (15 μM final concentration). The 2× Factor XIa stock solution was prepared by diluting 6.562 μM stock in 1× assay buffer for a […].
Test compound(s) were run in an 11-point, 3-fold serial dilution with a final top compound concentration of 100 nM. Final DMSO in assay was 2%. FXIa was preincubated with compound for 30-minutes and then substrate was added to initiate the reaction. The assay was run with kinetic (KIN) reads at 5 min intervals over 30 minutes. The time course was linear using […] FXIa greater than 30 minutes. More specifically, the assay was run as follows: • 100 nL of 0.01 mM test compound was dispensed into black 384-well non-binding Greiner BioOne 784900 plate for 0.1 μM final concentration; • 5 μL of 1× assay buffer was dispensed to column 24 (low control) and 5 μL 2× Factor XIa solution was dispensed to columns 1-23 (column 23 high control); • the plate was centrifuged with a “cover” plate at 500 rpm for 1 min • the plate was pre-incubated for 30 minutes at room temperature with plate covered; • 5 μL of 2×5Fam-KLTRAETV-K5Tamra peptide substrate was dispensed into the entire plate, columns 1-24; • the plate was centrifuged with a “cover” plate at 500 rpm for 1 min; • the plate was read monitoring fluorescence intensity on the BMG PHERAStar at room temperature, using fluorescence module 485 nm/520 nm.
Percent inhibition (IC50) curves were generated per compound tested, and data was analyzed using a 4-parameter logistic fit using GeneData Screener. The relative fluorescence unit (RFU) values were normalized to percent inhibition using the following equation: % inhibition=((HC−LC)−(compound−LC)/(HC−LC))*100
where LC−low control=mean signal of no Factor XIa or 100% inhibition of Factor XIa; HC−high control=mean signal of Factor XIa+5Fam-KLTRAETV-K5Tamra peptide substrate with DMSO only.
An 11-point dose response curve for the test compound(s) was generated using GENDATA to determine IC50 value based on the following equation: Y=Bottom+(Top−Bottom)/(1+10^((log IC50−X)*HillSlope))
where Y is the % inhibition in the presence of X inhibitor concentration, Top=high control=mean signal of Factor XIa+5Fam-KLTRAETV-K5Tamra peptide substrate with DMSO only; Bottom=low control−mean signal of no Factor XIa or 100% inhibition of Factor XIa; HillSlope−Hill coefficient; and IC50=concentration of compound with 50% inhibition in relation to top/high control.
(§1) Representative compounds of formula (I) of the present invention were tested according to the procedure described in Biological Example 1 and Biological Example 2 above, with results as listed in Table 3, below.

[2] = target: human plasma kallikrein (Homo sapiens, UniProt P03952); assay: Kallikrein inhibition assay utilizing a quenched AMC peptide substrate (FLINT); type: biochemical; conditions: 30 min preincubation, 50 μM Z-Gly-Pro-Arg-AMC, 2 nM kallikrein
human plasma kallikrein, sequence (P03952 391-638 limits assumed): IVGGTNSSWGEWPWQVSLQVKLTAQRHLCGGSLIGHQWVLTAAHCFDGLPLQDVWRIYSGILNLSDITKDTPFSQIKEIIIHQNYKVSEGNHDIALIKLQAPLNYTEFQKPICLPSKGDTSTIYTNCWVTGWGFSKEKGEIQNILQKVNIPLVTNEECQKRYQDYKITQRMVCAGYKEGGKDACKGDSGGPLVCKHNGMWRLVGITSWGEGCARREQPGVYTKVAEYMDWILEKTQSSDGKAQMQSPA
human plasma kallikrein, sequence (P03952 20-390 partner limits assumed): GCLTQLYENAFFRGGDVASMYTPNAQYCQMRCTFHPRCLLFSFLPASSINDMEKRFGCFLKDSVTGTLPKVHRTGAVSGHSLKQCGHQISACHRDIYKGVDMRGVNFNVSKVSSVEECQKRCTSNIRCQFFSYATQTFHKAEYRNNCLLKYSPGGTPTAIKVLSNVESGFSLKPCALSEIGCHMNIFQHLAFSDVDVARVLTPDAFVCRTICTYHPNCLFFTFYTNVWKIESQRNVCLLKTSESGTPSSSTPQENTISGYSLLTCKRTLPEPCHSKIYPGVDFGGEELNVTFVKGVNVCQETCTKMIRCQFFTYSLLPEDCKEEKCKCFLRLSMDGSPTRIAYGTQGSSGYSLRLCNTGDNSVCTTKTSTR
Text: Biological Example 2: Kallikrein Inhibition Assay Utilizing a Quenched AMC Peptide Substrate
A fluorescence intensity (FLINT) based assay was used to monitor inhibition of human plasma kallikrein. The peptide substrate, Z-Gly-Pro-Arg-AMC (Purchased from Bachem; Catalog #1-1150) was chosen based on its relatively low KM for kallikrein which enables running the assay at lower substrate concentrations to control background fluorescence.
The Kallikrein FLINT assay was used with the following Z-Gly-Pro-Arg-AMC assay buffer: 50 mM Tris, pH 7.5, 100 mM NaCl, 5 mM CaCl2), 0.1 mg/mL BSA, 0.03% CHAPS. Assay buffer was prepared by mixing all ingredients fresh. 2× Z-Gly-Pro-Arg-AMC peptide substrate was prepared by diluting 10 mM stock into 1× assay buffer for a 100 μM working concentration (50 μM final concentration). The 2× kallikrein stock solution was prepared by diluting 14.76 μM stock in 1× assay buffer for a 4 nM working stock solution (2 nM final concentration).
Test compound(s) were run in an 11-point, 3-fold serial dilution with a final top compound concentration of 1 μM. Final DMSO in assay was 2%. Plasma kallikrein was pre-incubated for 30-minute with compound and then 50 μM substrate was added to initiate the reaction. The assay was run with kinetic (KIN) reads at 5 min intervals over 30 minutes. The time course was linear using 2 nM kallikrein greater than 30 minutes. More specifically, the assay was run as follows: • 100 nL of 0.1 mM test compound was dispensed into black 384-well non-binding Greiner BioOne 784900 plate for 1 μM final concentration; • 5 μL of 1× assay buffer was dispensed to columns 24 (low control) and 5 μL 2× human kallikrein enzyme solution was dispensed to columns 1-23 (column 23 high control); • the plate was centrifuged with a “cover” plate at 500 rpm for 1 min • the plate was pre-incubated for 30 minutes at room temperature with plate covered; • 5 μL of 2× Z-Gly-Pro-Arg-AMC peptide substrate was dispensed into the entire plate, columns 1-24; • the plate was centrifuged with a “cover” plate at 500 rpm for 1 min; the plate was read monitoring fluorescence intensity on the BMG PHERAStar at room temperature, using fluorescence module 340 nm/440 nm.
Percent inhibition (IC50) curves were generated per compound tested, and data was analyzed using a 4-parameter logistic fit using GeneData Screener. The relative fluorescence unit (RFU) values were normalized to percent inhibition using the following equation: % inhibition=((HC−LC)−(compound−LC)/(HC−LC))*100 where LC—low control=mean signal of human kallikrein enzyme or 100% inhibition of human kallikrein enzyme; HC—high control=mean signal of […]+Z-Gly-Pro-Arg-AMC peptide substrate with DMSO only.
An 11-point dose response curve for the test compound(s) was generated using GENDATA to determine IC50 value based on the following equation: Y=Bottom+(Top−Bottom)/(1+10^((log IC50−X)*HillSlope)) • where Y is the % inhibition in the presence of X inhibitor concentration, Top=high control=mean signal of human kallikrein enzyme+Z-Gly-Pro-Arg-AMC peptide substrate with DMSO only; Bottom=low control−mean signal of no human kallikrein enzyme or 100% inhibition of human kallikrein enzyme; HillSlope—Hill coefficient; and IC50=concentration of compound with 50% inhibition in relation to top/high control.
as §1

[3] = 30 min preincubation, 5Fam-KLTRAETV-K5Tamra substrate 15 μM final, kinetic reads
[4] = cells that print μM themselves in the nM column, same assay conditions
[5] = cells that print μM themselves in the nM column

Compound | IC50 [1, 3] [µM] | Ki [1] [µM] | IC50 [2] [nM] | IC50 [1, 4] [µM] | Ki [1, 5] [µM]
Nc1ccc(-c2cnc([C@@H]3CCc4c5c(cc(=O)n43)-c3c(ccc(Cl)c3F)CC3(CC3)N(CCO)C5=O)[nH]2)c(F)n1 (single isomer, unassigned) [Compound 11, (S*)-12-(5-(6-amino-2-fluoropyridin-3-yl)-1H-imidazol-2-yl)-7-chloro-8-fluoro-2-(2-hydroxyethyl)-13,14-dihydro-2H-spiro[benzo[5,6]azocino[4,3-g]indolizine-3,1′-cyclopropane]-1,10(4H,12H)-dione] | – | 0.588 | > 10000 | 1.17 | –
Cc1nc2cc(-c3cnc([C@@H]4CCc5c6c(cc(=O)n54)-c4c(ccc(Cl)c4F)CC4(CC4)NC6=O)[nH]3)ccc2s1 (stereo in doubt) [Compound 4, (S*)-7-chloro-8-fluoro-12-(5-(2-methylbenzo[d]thiazol-5-yl)-1H-imidazol-2-yl)-13,14-dihydro-2H-spiro[benzo[5,6]azocino[4,3-g]indolizine-3,1′-cyclopropane]-1,10(4H,12H)-dione] | – | – | > 10000 | 2.29 | 1.15
Nc1ccc(-c2cnc([C@H]3CCc4c5c(cc(=O)n43)-c3c(ccc(Cl)c3F)CC3(CC3)NC5=O)[nH]2)c(F)n1 (stereo in doubt) [Compound 54, (R*)-12-(5-(6-amino-2-fluoropyridin-3-yl)-1H-imidazol-2-yl)-7-chloro-8-fluoro-13,14-dihydro-2H-spiro[benzo[5,6]azocino[4,3-g]indolizine-3,1′-cyclopropane]-1,10(4H,12H)-dione] | 0.224 | 0.112 | > 10000 | – | –
Cn1ncc(-c2cnc(C(CC3CC3)n3cc4c(cc3=O)-c3c(ccc(Cl)c3F)CC3(CC3)NC4=O)[nH]2)cc1=O (single isomer, unassigned) [Compound 59, (S*)-11-chloro-3-(2-cyclopropyl-1-(5-(1-methyl-6-oxo-1,6-dihydropyridazin-4-yl)-1H-imidazol-2-yl)ethyl)-12-fluoro-3H-spiro[benzo[e]pyrido[3,4-c]azocine-7,1′-cyclopropane]-2,5(6H,8H)-dione] | – | – | > 10000 | 4.39 | 2.19

The next molecules have a lower IC50 [2] than those just listed; values first:

IC50 [1, 3] [µM] | Ki [1] [µM] | IC50 [2] [nM] | IC50 [1, 4] [µM] | Ki [1, 5] [µM] | Compound
0.001 | 0.0005 | 120 | – | – | COC(=O)Nc1ccc(-c2cnc([C@H](CC3CC3)n3cc4c(cc3=O)-c3c(ccc(Cl)c3F)CC3(CC3)NC4=O)[nH]2)cc1 [Compound 61, Methyl (S)-(4-(2-(1-(11-chloro-12-fluoro-2,5-dioxo-2,5,6,8-tetrahydro-3H-spiro[benzo[e]pyrido[3,4-c]azocine-7,1′-cyclopropan]-3-yl)-2-cyclopropylethyl)-1H-imidazol-5-yl)phenyl)carbamate]
0.0486 | 0.0243 | 5370 | – | – | COC(=O)Nc1ccc(-c2cnc(C(CC3CC3)n3cc4c(cc3=O)-c3c(ccc(Cl)c3F)CC3(CC3)NC4=O)[nH]2)cc1 (single isomer, unassigned) [Compound 62, Methyl (R*)-(4-(2-(1-(11-chloro-12-fluoro-2,5-dioxo-2,5,6,8-tetrahydro-3H-spiro[benzo[e]pyrido[3,4-c]azocine-7,1′-cyclopropan]-3-yl)-2-cyclopropylethyl)-1H-imidazol-5-yl)phenyl)carbamate]
0.0267 | 0.0133 | 3540 | – | – | O=C1NC2(CC2)Cc2ccc(Cl)c(F)c2-c2cc(=O)n3c(c21)CCC3c1ncc(-c2ccn3c(Br)cnc3c2)[nH]1 (single isomer, unassigned) [Compound 72, (*R)-12-(5-(3-Bromoimidazo[1,2-a]pyridin-7-yl)-1H-imidazol-2-yl)-7-chloro-8-fluoro-13,14-dihydro-2H-spiro[benzo[5,6]azocino[4,3-g]indolizine-3,1′-cyclopropane]-1,10(4H,12H)-dione]
0.0002 | 0.0001 | 70 | – | – | Nc1ccc(-c2cnc([C@@H]3CCc4c5c(cc(=O)n43)-c3c(ccc(Cl)c3F)CC3(CC3)NC5=O)[nH]2)c(Cl)n1 [Compound 52, (S)-12-(5-(6-amino-2-chloropyridin-3-yl)-1H-imidazol-2-yl)-7-chloro-8-fluoro-13,14-dihydro-2H-spiro[benzo[5,6]azocino[4,3-g]indolizine-3,1′-cyclopropane]-1,10(4H,12H)-dione]
0.0129 | 0.0064 | 1390 | – | – | O=C1NC2(CC2)Cc2ccc(Cl)c(F)c2-c2cc(=O)n([C@@H](CC3CC3)c3ncc(-c4ccncc4)[nH]3)cc21 (single isomer, unassigned) [Compound 67, (S*)-11-chloro-3-(2-cyclopropyl-1-(5-(pyridin-4-yl)-1H-imidazol-2-yl)ethyl)-12-fluoro-3H-spiro[benzo[e]pyrido[3,4-c]azocine-7,1′-cyclopropane]-2,5(6H,8H)-dione]
